Laboratory results from patent publication US20080064071A1, “Zwitterionic detergents for the storage and use of DNA polymerases” (priority 2006, published 2008).
“And” between values parts separate entries of the source, which are not always exact repeats. Equal entries are not always repeated.

How the values were obtained:
[1] = test system: Pfu and Pfu fusion DNA polymerase; test: Endpoint PCR, enhancing detergents and detergent combinations (Table 2); format: biochemical, Pyrococcus furiosus; conditions: for Effective range, Detergent 1 (single detergent) / Optimal range, Detergent 1 (single detergent): endpoint PCR, detergent alone
[2] = test system: Pfu fusion DNA polymerase; test: SYBR Green QPCR with Pfu fusion DNA polymerase; format: biochemical, Pyrococcus furiosus; conditions: for Effective range, concentration of each detergent in combination, SYBR Green QPCR: combination CHAPS (0.1%) + Anz. 3-10 (0.02-0.15%); for Optimal range, concentration of each detergent in combination, SYBR Green QPCR: combination CHAPS (0.1%) + Anz. 3-10 (0.05-0.15%); for Effective range, Detergent 1 (single detergent), SYBR Green QPCR / Optimal range, Detergent 1 (single detergent), SYBR Green QPCR: detergent alone; for QPCR amplification efficiency, total fluorescence and Ct values versus 0.1% Triton X100 (FIG. 7) / amplification efficiency, total fluorescence and Ct values (FIG. 8): 0.5% detergent; for amplification efficiency, total fluorescence and Ct values (FIG. 8): aldolase and GDH gene targets
Procedure: QPCR reactions contained DNA or cDNA template, varying amounts of primer (see Table 3 below), 300 uM each dNTP, 4 ng/ul exo Pfu fusion, 6 ng/ul hot start IgG, 0.4ng/ul single-stranded DNA-binding protein, 1× Pfu fusion DF-buffer II (pH 9), 4% DMSO, and 8% glycerol. QPCR reactions were supplemented with 0.1% Triton X100 or zwitterionic detergent, and with 0.5× SYBR Green (Molecular Probes S-7567). Reactions were cycled on the MX3000P Real-Time PCR System using the following conditions: (1 cycle) 95° C. 5 min; (40 cycles) 95° C. 10 sec, 60° C. 30 sec.

Pfu DNA polymerase = biological target: T1, Pfu DNA polymerase (Pyrococcus furiosus, UniProt P61875); test: Endpoint PCR with Pfu DNA polymerase, detergent/surfactant added to detergent-free PCR buffer; format: biochemical; conditions: for product yields on addition of zwitterionic detergent to PCR buffer (FIG. 5): versus buffer lacking detergent, which failed to generate product; for effectiveness relative to CHAPS and Anzergent 3-10 (FIG. 5): CHAPSO 0.05-0.2%, Anzergent 3-12 0.1-0.2%, in PCR buffer
T1 sequence (P61875 1-775): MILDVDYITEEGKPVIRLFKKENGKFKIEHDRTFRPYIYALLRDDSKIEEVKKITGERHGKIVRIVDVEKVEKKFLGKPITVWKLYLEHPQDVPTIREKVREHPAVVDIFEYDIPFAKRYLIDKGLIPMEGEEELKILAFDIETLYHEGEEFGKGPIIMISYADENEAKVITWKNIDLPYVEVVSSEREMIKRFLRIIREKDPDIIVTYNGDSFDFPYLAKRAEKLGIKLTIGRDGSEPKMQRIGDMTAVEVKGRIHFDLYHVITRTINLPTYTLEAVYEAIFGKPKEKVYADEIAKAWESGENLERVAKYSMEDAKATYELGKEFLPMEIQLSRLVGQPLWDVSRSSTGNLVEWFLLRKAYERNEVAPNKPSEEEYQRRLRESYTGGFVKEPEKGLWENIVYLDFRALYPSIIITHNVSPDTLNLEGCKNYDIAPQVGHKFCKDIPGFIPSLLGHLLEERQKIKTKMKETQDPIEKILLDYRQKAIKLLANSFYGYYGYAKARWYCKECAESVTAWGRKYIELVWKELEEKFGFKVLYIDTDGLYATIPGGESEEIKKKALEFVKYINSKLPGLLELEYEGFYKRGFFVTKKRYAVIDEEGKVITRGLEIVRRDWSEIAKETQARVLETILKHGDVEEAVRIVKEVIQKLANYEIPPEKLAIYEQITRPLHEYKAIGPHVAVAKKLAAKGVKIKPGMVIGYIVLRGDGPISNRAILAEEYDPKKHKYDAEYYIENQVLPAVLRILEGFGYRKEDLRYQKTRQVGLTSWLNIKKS
Procedure: Pfu (exo+ and exo−) fusion DNA polymerase (e.g., as described in U.S. patent application Ser. No.: 11/488,535, filed Jul. 17, 2006, and herein incorporated by reference in its entirety), cPfu DNA polymerase (Stratagene catalog #600154), and PEF were purified using standard production protocols (no detergent present), except that non-ionic detergents were omitted from the final storage buffers. Enzymes were stored at −20° C. in 50 mM Tris-HCl (pH 8.2), 0.1 mM EDTA, 1 mM DTT, and 50% glycerol. DNA polymerase storage buffers were additionally supplemented with one or more zwitterionic detergents, in percentages (v/v) ranging from 0.05% to 0.5%.
PCR reaction buffers were prepared without non-ionic detergents (“DF buffer”, detergent-free buffer). For example, 1× cPfu DF-buffer contains 10 mM KCl, 10 mM (NH4)2SO4, 20 mM Tris HCl (pH 8.8), 2 mM MgSO4, and 100 ug/ml BSA. Detergent-free versions of Pfu fusion buffers were also prepared, and consisted of: 40 mM Tris-SO4 (pH 10), 15 mM K2SO4, 8 mM (NH4)2SO4, 2 mM MgSO4 (1× Pfu fusion DF-buffer I) or 30 mM Tris-SO4 (pH 10), 40 mM K2SO4, 1.5 mM (NH4)2SO4, 2 mM MgSO4 (1× Pfu fusion DF-buffer II).
PCR reaction buffers were supplemented with 0.1% Triton X100 (non-ionic detergent) or with one or more zwitterionic detergents or non-detergent surfactants. For example, zwitterionic detergents CHAPS, CHAPSO, 3-10, and 3-12 were obtained from AnaTrace, Inc. (Maumee, Ohio) and added to DF-buffers in percentages (v/v) ranging from 0.05% to 0.5%. The non-detergent surfactant, Surfynol 465, was purchased from Air Products and used in a similar fashion.
For the 0.9 kb and 6 kb systems, PCR reactions (50 ul) were conducted with 40 ng cPfu DNA polymerase in IX cPfu DF-buffer or with 28 ng or 224 ng Pfu fusion DNA polymerase in 1× Pfu fusion DF-buffer I or DF-buffer II, respectively. PCR reactions also contained 2 U/50 ul Pyrococcus furiosus dUTPase (PEF), 100 ng of human genomic DNA, 250 uM each dNTP, and 100 ng of each primer. For the 9 kb system, PCR reactions (50 ul) consisted of 80 ng Pfu, 1.5× cPfu DF-buffer, 2U Pyrococcus furiosus dUTPase (PEF), 200 ng of human genomic DNA, 500 uM each dNTP, and 200 ng of each primer. PCR reaction buffers were supplemented with 0.1% Triton X100 or with zwitterionic detergent(s).

[3] = test system: Pfu fusion DNA polymerase; test: Endpoint PCR with Pfu fusion DNA polymerase, detergent/surfactant added to detergent-free PCR buffer; format: biochemical, Pyrococcus furiosus; conditions: for PCR amplification with detergent alone (FIG. 2) / PCR product with detergent alone (FIG. 3): 0.05% of the individual detergent; for detergent concentration at which amplifications generated product yields (FIG. 1): individual detergent in fusion PCR buffer, genomic DNA targets, no product in absence of detergent
[4] = test system: Pfu fusion DNA polymerase; test: Accelerated stability study of Pfu fusion DNA polymerase in storage buffer, residual activity by 0.9 kb PCR; format: biochemical, Pyrococcus furiosus; conditions: detergent in storage buffer
Procedure: Accelerated stability studies were performed to illustrate the stabilizing effects of zwitterionic detergents. Pfu fusion DNA polymerase was purified in the absence of detergents and then diluted to 28 ng/ul in storage buffer lacking detergent or storage buffers containing either conventional non-ionic detergent (0.1% Igepal/0.1% Triton X100) or various zwitterionic detergents. Protein samples were stored at −20° C. or were heated at 95° C. for varying lengths of time. Residual activity was assayed by amplifying a 0.9 kb genomic target in PCR in fusion DF-buffer supplemented with either 0.1% Triton X100 or 0.1% CHAPSO/0.1% Anzergent 3-12.

Taq DNA polymerase = Taq DNA polymerase (Thermus aquaticus, UniProt P19821); conditions: disclosed in U.S. Pat. No. 6,127,155; cited from earlier work
[5] = combination CHAPS (0.05, 0.1%) + Anz. 3-10 (0.1-0.5%)
[6] = combination CHAPSO (0.1%) + Anz. 3-10 (0.05-0.4%)
[7] = combination CHAPSO (0.1%) + Anz. 3-10 (0.05-0.5%)
[8] = combination CHAPS (0.05%) + Anz. 3-12 (0.05-0.3%)
[9] = combination CHAPS (0.05%) + Anz. 3-12 (0.05-0.5%)
[10] = combination CHAPS (0.1%) + Anz. 3-12 (0.05-0.5%)
[11] = combination CHAPS (0.05-0.5%) + CHAPSO (0.05-0.3%)

Sequence of Taq DNA polymerase (P19821 whole entry): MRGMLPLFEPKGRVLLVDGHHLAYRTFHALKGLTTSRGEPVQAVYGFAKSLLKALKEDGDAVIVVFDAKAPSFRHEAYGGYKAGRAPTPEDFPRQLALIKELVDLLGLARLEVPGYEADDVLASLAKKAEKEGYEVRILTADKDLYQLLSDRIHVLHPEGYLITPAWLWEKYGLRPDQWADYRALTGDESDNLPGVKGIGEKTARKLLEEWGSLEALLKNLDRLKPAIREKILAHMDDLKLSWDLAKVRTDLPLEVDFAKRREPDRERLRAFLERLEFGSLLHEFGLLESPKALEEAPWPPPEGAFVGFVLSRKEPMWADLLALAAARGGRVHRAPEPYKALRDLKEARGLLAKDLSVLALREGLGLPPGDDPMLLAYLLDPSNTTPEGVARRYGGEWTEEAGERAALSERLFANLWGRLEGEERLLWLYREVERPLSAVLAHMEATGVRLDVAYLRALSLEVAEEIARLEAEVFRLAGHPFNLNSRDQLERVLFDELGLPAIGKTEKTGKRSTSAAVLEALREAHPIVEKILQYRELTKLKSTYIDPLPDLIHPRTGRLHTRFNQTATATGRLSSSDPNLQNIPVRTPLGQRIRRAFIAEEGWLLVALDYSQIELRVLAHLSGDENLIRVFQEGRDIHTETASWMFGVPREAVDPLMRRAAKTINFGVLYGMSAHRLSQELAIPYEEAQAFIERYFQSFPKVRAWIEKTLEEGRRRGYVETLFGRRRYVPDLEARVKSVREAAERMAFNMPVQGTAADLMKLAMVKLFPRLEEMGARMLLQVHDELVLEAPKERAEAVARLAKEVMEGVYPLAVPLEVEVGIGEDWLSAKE

Molecule | Optimal range, concentration of each detergent in combination [1, 6] | Effective range, concentration of each detergent in combination [1, 7] | Effective range, Detergent 1 (single detergent) [1] | Optimal range, Detergent 1 (single detergent) [1] | Effective range, concentration of each detergent in combination, SYBR Green QPCR [2] | Optimal range, concentration of each detergent in combination, SYBR Green QPCR [2] | Effective range, Detergent 1 (single detergent), SYBR Green QPCR [2] | Optimal range, Detergent 1 (single detergent), SYBR Green QPCR [2] | product yields on addition of zwitterionic detergent to PCR buffer (FIG. 5) (Pfu DNA polymerase) | PCR amplification with detergent alone (FIG. 2) [3] | detergent concentration at which amplifications generated product yields (FIG. 1) [3] | effect on stability of Pfu fusion DNA polymerase (FIG. 6) [4] | Optimal range, concentration of each detergent in combination [1, 8] | Effective range, concentration of each detergent in combination [1, 9] | Effective range, concentration of each detergent in combination [1, 10] | Optimal range, concentration of each detergent in combination [1, 10] | effectiveness relative to CHAPS and Anzergent 3-10 (FIG. 5) (Pfu DNA polymerase) | PCR product with detergent alone (FIG. 3) [3] | Effective range, concentration of each detergent in combination [1, 11] | QPCR amplification efficiency, total fluorescence and Ct values versus 0.1% Triton X100 (FIG. 7) [2] | other results
CCCCCCCCCC[N+](C)(C)CCCS(=O)(=O)[O-] [Anzergent 3-10, n-Decyl-N,N-dimethyl-3-ammonio-1-propanesulfonate] | Anz. 3-10 (0.05-0.4%) | Anz. 3-10 (0.05-0.5%) | Anz. 3-10 (0.4-0.8%) | Anz. 3-10 (0.4-0.8%) | Anz. 3-10 (0.02-0.15%) | Anz. 3-10 (0.05-0.15%) | Anz. 3-10 (0.1-0.3%) | Anz. 3-10 (0.2%) | dramatically improved | little amplification | 0.4-0.8% | – | – | – | – | – | – | – | – | – | Effective range, concentration of each detergent in combination [1, 5]: Anz. 3-10 (0.1-0.5%); Optimal range, concentration of each detergent in combination [1, 5]: Anz. 3-10 (0.1-0.5%); detergent concentration with favorable result on PCR amplification (FIG. 2) ([3]; individual detergent added to the reaction): 0.4% and 0.8%
CCCCCCCCCCCC[N+](C)(C)CCCS(=O)(=O)[O-] [Anzergent 3-12, n-Dodecyl-N,N-dimethyl-3-ammonio-1-propanesulfonate] | – | – | Anz. 3-12 (0.1-0.4%) | Anz. 3-12 (0.1-0.2%) | – | – | Anz. 3-12 (0.1-0.2%) | Anz. 3-12 (0.15-0.2%) | dramatically improved | – | 0.1-0.2% | enhance the stability | Anz. 3-12 (0.05-0.3%) | Anz. 3-12 (0.05-0.5%) | Anz. 3-12 (0.05-0.5%) | Anz. 3-12 (0.05-0.5%) | somewhat more effective | did not show observable levels of PCR product | – | – | Effective range, concentration of each detergent in combination ([1]; combination CHAPSO (0.05%, 0.1%) + Anz. 3-12 (0.05-0.5%)): Anz. 3-12 (0.05-0.5%)
C[C@H](CCC(=O)NCCC[N+](C)(C)CC(O)CS(=O)(=O)[O-])[C@H]1CC[C@H]2[C@@H]3[C@H](O)C[C@@H]4C[C@H](O)CC[C@]4(C)[C@H]3C[C@H](O)[C@]12C (some centres unmarked) [CHAPSO] | CHAPSO (0.1%) | CHAPSO (0.1%) | CHAPSO (0.1-0.8%) | CHAPSO (0.15-0.35%) | – | – | CHAPSO (0.1-0.75%) | CHAPSO (0.2-0.5%) | dramatically improved | little amplification | 0.15-0.3% | enhance the stability | – | – | – | – | somewhat more effective | did not show observable levels of PCR product | CHAPSO (0.05-0.3%) | comparable | amplification efficiency, total fluorescence and Ct values (FIG. 8) [2]: favorable
C[C@H](CCC(=O)NCCC[N+](C)(C)CCCS(=O)(=O)[O-])[C@H]1CC[C@H]2[C@@H]3[C@H](O)C[C@@H]4C[C@H](O)CC[C@]4(C)[C@H]3C[C@H](O)[C@]12C [CHAPS] | – | – | CHAPS (0.2-0.8%) | CHAPS (0.2-0.4%) | CHAPS (0.1%) | CHAPS (0.1%) | CHAPS (0.1-0.5%) | CHAPS (0.5%) | dramatically improved | – | – | enhance the stability | CHAPS (0.05%) | CHAPS (0.05%) | CHAPS (0.1%) | CHAPS (0.1%) | – | – | CHAPS (0.05-0.5%) | comparable | amplification efficiency, total fluorescence and Ct values (FIG. 8) [2]: favorable
NP-40 | – | – | – | – | – | – | – | – | – | – | – | – | – | – | – | – | – | – | – | – | effect on Taq DNA polymerase (Taq DNA polymerase): stabilize
